Article PMC9339481 (Nature chemical biology, 2022)
Like-named read-outs stand apart in the source and are kept apart here. Blank lines part the entries; values can stand above or below the compound they belong to.

Columns and labels:
[1] = molecular target: T1, recombinant MBLAC2 (Homo sapiens, UniProt Q68D91); experiment: Palmitoyl-CoA hydrolysis assay; type: biochemical; details: for EC50: assay threshold 10 nM
T1 sequence (Q68D91 1-279): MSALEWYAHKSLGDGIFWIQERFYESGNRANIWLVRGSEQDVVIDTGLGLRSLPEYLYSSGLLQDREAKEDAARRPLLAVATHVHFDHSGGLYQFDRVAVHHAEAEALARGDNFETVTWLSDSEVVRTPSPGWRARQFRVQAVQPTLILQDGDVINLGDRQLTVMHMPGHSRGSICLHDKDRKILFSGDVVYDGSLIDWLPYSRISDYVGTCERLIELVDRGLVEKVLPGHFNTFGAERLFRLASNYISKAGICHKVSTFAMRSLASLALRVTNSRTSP

[2] = molecular target: T2, HDAC8 (Homo sapiens, UniProt Q9BY41); experiment: HDAC-Glo enzyme activity assay; type: biochemical
T2 sequence (Q9BY41 1-377): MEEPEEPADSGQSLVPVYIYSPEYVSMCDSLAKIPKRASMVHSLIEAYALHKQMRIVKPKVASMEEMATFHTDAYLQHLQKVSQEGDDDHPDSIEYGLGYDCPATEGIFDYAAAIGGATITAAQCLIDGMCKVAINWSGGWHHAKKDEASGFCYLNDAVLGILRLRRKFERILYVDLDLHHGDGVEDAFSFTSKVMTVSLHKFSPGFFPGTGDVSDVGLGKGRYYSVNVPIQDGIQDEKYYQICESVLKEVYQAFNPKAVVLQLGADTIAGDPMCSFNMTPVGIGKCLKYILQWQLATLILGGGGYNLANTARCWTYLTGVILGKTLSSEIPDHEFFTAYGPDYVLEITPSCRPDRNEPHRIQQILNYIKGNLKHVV

[3] = tested on: HDACs or other metalloproteins; experiment: chemoproteomic competition pulldown assay, whole target panel; details: for affinities (Kd^app) in chemoproteomic assay: doses up to 3000 μM
[4] = tested on: HDAC6; details: reported values; cited from earlier work
[5] = tested on: class IIa HDACs; experiment: chemoproteomic competition pulldown assay, class IIa HDACs; type: binding, human
[6] = tested on: HDAC1 and HDAC2; experiment: binding kinetics pulldown experiment; design: species or system human; details: 4 °C, 30 μM
[7] = tested on: CoREST complex subunits RCOR3 and RCOR1; experiment: HDAC complex selectivity from competition pulldown; type: binding, human
[8] = tested on: SW620 cells, HDAC6 substrate alpha-tubulin; experiment: Western blot against acetylated alpha-Tubulin; type: cell-based, human; details: 6 h, vs DMSO control
[9] = molecular target: HDACs 1–3; experiment: chemoproteomic competition pulldown assay, HDACs 1–3; type: binding, human
[10] = EC50 of MBLAC2 hydrolase activity inhibition

Compound: O=C(CCCCCCC(=O)Nc1ccccc1)NO [Vorinostat]
activity against HDAC8 [2]: very low activity

Compound: Nc1cc(F)ccc1NC(=O)c1ccc(CNC(=O)/C=C/c2cccnc2)cc1 [Tucidinostat]
MBLAC2 enzyme activity, single dose screen ([1]; 300 nM drug, 30 nM MBLAC2): little if any effect on enzyme activity
effect on MBLAC2 activity ([1]; at a 1,000-fold higher concentration): did not affect MBLAC2 activity

Compound: CCCCOc1ccc(CC(=O)NO)cc1 [Bufexamac]
HDAC binding in chemoproteomic assay [3]: did not bind HDACs

Compound: CCCCN(Cc1ccc(C(=O)NO)cc1)C(=O)Nc1ccccc1 [Nexturastat A]
pEC50 HDAC6 [4]: 8.3

Compound: Cc1cc(C)cc(C(=O)NOCCCCCC(=O)NO)c1 [LMK235]
class IIa target engagement [5]: no class IIa target engagement at all

Compound: Nc1ccccc1NC(=O)c1ccc(CNC(=O)OCc2cccnc2)cc1 [Entinostat]
time until target HDACs maximally competed [6]: more than 2 h

Compound: CCCCc1nc2cc(/C=C/C(=O)NO)ccc2n1CCN(CC)CC [Pracinostat]
EC50 [1, 10]: < 10 nM

Compound: CCCC(CCC)C(=O)O [Valproic Acid]
affinities (Kd^app) in chemoproteomic assay [3]: three-digit micromolar

Compound: O=C(/C=C/c1ccc(CN(CCO)CCc2c[nH]c3ccccc23)cc1)NO [Dacinostat]
lower EC50 value of RCOR3 compared to RCOR1 and other CoREST members [7]: > 10 fold

Compound: C/C=C1\NC(=O)[C@H]2CSSCC/C=C/[C@H](CC(=O)N[C@H](C(C)C)C(=O)N2)OC(=O)[C@H](C(C)C)NC1=O [Romidepsin]
lower EC50 value of RCOR3 compared to RCOR1 and other CoREST members [7]: > 10 fold

Compound: CN(C)Cc1c(C(=O)NCCOc2ccc(C(=O)NO)cc2)oc2ccccc12 [Abexinostat]
EC50 [1, 10]: < 10 nM

Compound: O=C(NO)c1cnc(NC2(c3ccccc3)CC2)nc1 [ACY-738]
acetylation of alpha-Tubulin Lys40 [8]: significant overacetylation

Compound: Cc1cc(Cl)ccc1OCCCC(=O)NO [Droxinostat]
HDAC binding in chemoproteomic assay [3]: did not bind HDACs

Compound: O=C(O)CCCc1ccccc1 [Phenylbutanoic Acid]
affinities (Kd^app) in chemoproteomic assay [3]: three-digit micromolar

Compound: O=C(CCCCCCNC(=O)c1cnc(N(c2ccccc2)c2ccccc2)nc1)NO [Ricolinostat]
pKd^app range for HDACs 1–3 [9]: 4.9–6.0

Compound: Cn1c(/C=C/C(=O)NO)ccc1/C=C/C(=O)c1cccc(F)c1 [MC1568]
class IIa target engagement [5]: no class IIa target engagement at all

Results, then the compound that gave them:

EC50 ([1]; read-out: EC50 of MBLAC2 hydrolase activity inhibition): < 10 nM
Compound: CC(C)[C@H](C(=O)Nc1ccc(C(=O)NO)cc1)c1ccccc1 [AR-42]

lower EC50 value of RCOR3 compared to RCOR1 and other CoREST members [7]: > 10 fold
Compound: CN(C)c1ccc(C(=O)NCCCCCCC(=O)NO)cc1 [M344]
